According to paper PMC12117050 (Scientific Reports, 2025):

Columns and labels:
CYP3A4 = details: cited from earlier work
CYP3A [1] = details: by inhibiting CYP3A activity; cited from earlier work
CYP3A [2] = details: cited from earlier work
[3] = Midazolam pharmacokinetics in rats after 7-day MFE or water pre-treatment; details: rat
[4] = Sprague Dawley, plasma, po, 15 mg/kg

For `O=C(O[C@@H]1Cc2c(O)cc(O)cc2O[C@@H]1c1cc(O)c(O)c(O)c1)c1cc(O)c(O)c(O)c1` [EGCG, epigallocatechin gallate], the “Inhibition of CYP3A4 activity” value (CYP3A4) is listed as “irreversibly inhibits”, the “Effect on pharmacokinetics of nicardipine in rats” value (CYP3A [1]) is listed as “alters the pharmacokinetics of nicardipine” and the “Inhibition of CYP3A activity in human liver microsomes” value (CYP3A [2]) is listed as “moderately inhibits”.

With `Cc1ncc2n1-c1ccc(Cl)cc1C(c1ccccc1F)=NC2` [Midazolam] the Tmax ([3]; Sprague Dawley, plasma, po) was 15 min, the Cmax [3, 4] was 708 ± 91 ng/mL and the Tmax [3, 4] was 30 min. For the same molecule, the Cmax ([3]; midazolam 15 mg/kg oral, control (water pre-treatment 7 days)) was 919 ± 70 ng/mL and the “AUC0−∞ higher in MFE pre-treatment group compared to control group” value ([3]; midazolam 15 mg/kg oral, no significant difference) was 12%.
